Experimental data as given in a melting point compilation (Tetko et al.; mined from patent text by program, amines drawn as free bases though some values may be those of a salt).

SMILES	melting point
COC(=O)c1ncc(OS(=O)(=O)c2ccc(C)cc2)c2c1[nH]c1ccccc12	230 to 231 °C
CCCc1c(OCCCCCc2c(Cl)ccc(OC)c2OC)ccc(C(=O)OC)c1O	53 to 55 °C
Cc1cccc(C)c1C(=O)Nc1cccc2c1CCN(C)C2	200 to 201 °C
COc1ccc(-n2nnnc2C(F)(F)F)cc1[C@H]1CO[C@]2(CCCN(Cc3nc(=O)[nH][nH]3)[C@H]2c2ccccc2)C1	186 to 187 °C
O=C(N1CCN(c2ccncc2Cl)CC1)N1CCN(S(=O)(=O)c2ccc(Br)cc2)CC1	194 to 195 °C
CN(C)C(=O)Nc1ccc(Cl)c(N)n1	139 to 141 °C
CC12CC(N3CCOCC3)C(O)CC1CCC1C2CCC2(C)C(O)C(N3CCCCC3)CC12 (stereo not given)	222 to 229 °C
Clc1ccc(-c2nc(Cl)nc(Cl)c2-c2ccccc2)cc1	129 to 131 °C
CC(=O)N1CCN(c2nccc(Oc3ccc(NC(=O)c4cc(F)cc(N5CCCCC5)c4)c4ccccc34)n2)CC1	102 to 104 °C
CC(C)N(Cc1ccc(C(F)(F)F)cc1)C(=O)C(Cl)Cl	92 to 93 °C
COc1cc2nc(S(=O)Cc3nccc(N(C)C)c3F)[nH]c2cc1OC (stereo not given)	208 to 210 °C
CC(=O)c1cccc(Oc2ncccc2C(=O)NCC2CCC(C(C)(C)O)CC2)c1 (stereo not given)	105 to 107 °C
CCn1c(=O)c2[nH]c(/C=C/c3ccc4c(c3)OCCO4)nc2n(CC)c1=O	> 300 °C
Cc1ccc(C=CC(=O)O)cn1	214 to 216 °C
OCCN1C2C=C(c3ccc4ccccc4c3)CC1CC2 (stereo not given)	113 to 114 °C
O=C(O)Cc1cc(Cc2cccc(Oc3ccccc3)c2)ccc1Nc1c(Cl)cccc1Cl	116 to 117 °C
CC(=Cc1ccccc1)c1ccc2c(c1)SCC(C)(C)CS2	45 to 48 °C
Fc1ccc(-c2cc(-c3cccs3)[nH]n2)cc1	181 to 184 °C
FC(F)(F)Oc1ccc(/C=C/c2ccc(CBr)cc2)cc1	100 to 102 °C
Fc1ccc(C(F)(F)F)cc1Nc1nc2ccccc2o1	164 to 165 °C
CO[C@H]1CN(c2c(F)c(N)c3c(=O)c(C(=O)O)cn(C4CC4)c3c2F)C[C@H]1N (relative stereo)	222 to 223 °C
CC(=O)c1cc(Cn2ccnc2)ccc1O	106 to 107 °C
CCOC(OCC)C(=O)OCc1c(-c2cnccn2)ssc1=O	74 to 76 °C
COc1cc(Cc2cnc(NCCSCc3ncccc3Br)[nH]c2=O)ccn1	70 to 72 °C
COC(=O)C(CSC(=O)c1ccccc1)NC(=O)C(=O)NC(CSC(=O)c1ccccc1)C(=O)OC (stereo not given)	185 to 186 °C

SMILES	melting point
NC(N)C(=O)c1ccccc1	104 to 107 °C
CC(O)c1cc(Br)ccc1N (stereo not given)	95 to 96 °C
CSc1nc2ccc(C(F)(F)F)cc2[nH]1	145 to 146 °C
CN(C)C1CCN(c2nc(N3CCOCC3)c3ncnc(N(CCCN)Cc4ccccc4)c3n2)CC1	102 to 105 °C
Cc1ccc(S(=O)(=O)N2CCCC(S(=O)(=O)c3ccc(Cl)cc3)C2)cc1 (stereo not given)	186 to 187 °C
COc1cccc(C2=C(CC(C)=NO)C(=O)NCCC2)c1	155 to 158 °C
FC(F)(F)c1ccc2c(Cl)ncc(Br)c2n1	59 to 60 °C
COc1cc(-c2ccc(N3CCCN(c4ccc(-c5cc(OC)c(O)c(OC)c5)cn4)CC3)nc2)cc(OC)c1O	200 to 202 °C
NC(=O)C(=O)Nc1nc(-c2cc(-c3ccccc3)on2)cs1	246 to 247 °C
Nc1nc(Nc2cccnc2)sc1C(=O)c1ccc(Cl)cc1Cl	209 to 210 °C
c1ccc(-n2c(-c3cccnc3)nc3ccccc32)cc1	110 to 112 °C
Cc1nc2c(s1)-c1nc(N(C)c3cccc([N+](=O)[O-])c3)ncc1CC2	203 to 204 °C
CC(C)CN(C[C@H](O)COc1cccc2[nH]c3ccccc3c12)c1ccc(OC(C)(C)C(N)=O)cc1	84 to 86 °C
O=c1[nH]c(=O)c2c1c1oc3ccccc3oc1c1[nH]c3cc(O)ccc3c12	> 340 °C
COc1ccccc1C(=O)Nc1cc(C(=O)NCc2ccccc2)ccn1	205 to 207 °C
CCOC(=O)[C@@H]1CCC(=O)N1C(=O)OC(C)(C)C	48 to 49 °C
C[C@@H](n1cnn(-c2ccc(OCC(F)(F)F)cc2)c1=O)[C@@]1(c2ccc(F)cc2F)CO1	118 to 119 °C
COc1cc(OC(C)=O)c2ccccc2c1OC(C)=O	135 to 136 °C
CC1(C)C=Cc2cc(OCc3ccccc3)c(OCc3ccccc3)cc2O1	50 to 51 °C
CCCC1=C(c2cccc([N+](=O)[O-])c2)C(=NO)CC1	128 to 129 °C
COc1cccc2c1OC(C(=O)Nc1ccncc1)C2CC(=O)O (stereo not given)	227 to 233 °C
COC(=O)c1cc(NC(=N)N)c(NC(C)=O)c(Br)c1O	238 to 240 °C
Cc1c(F)c(F)c(COC(=O)[C@@H]2[C@@H](C=O)C2(C)C)c(F)c1F	43.2 °C
Cc1coc2cc(N3CCCCC3)c(Cl)cc12	82 to 84 °C
CC(=O)Oc1ccc(C(F)(F)C(F)(F)C(F)(F)I)cc1	75 to 81 °C

SMILES	melting point
CC(CCn1cnc2ccccc21)NCC(O)COc1ccc(CC(N)=O)cc1 (stereo not given)	139 to 142 °C
CC(=NO)c1ccccc1Nc1c(Cl)ccc(C)c1Cl	116 to 118 °C
Fc1cc(F)c(N=C2NCCN2)c(F)c1	148 to 150 °C
NCCCCN1C(=O)NC(c2ccccc2)(c2ccccc2)C1=O	137 to 138 °C
N#CCN1c2ccc([N+](=O)[O-])cc2CS1(=O)=O	200 to 202 °C
COC(=O)C(O)(c1ccc(C)cc1)c1ccc(C)cc1	83 to 84 °C
COc1ccc(C2SC(=O)NC2C(=O)NCCO[N+](=O)[O-])cc1 (stereo not given)	142 to 143 °C
CC(C)(C)OC(=O)N(CCOc1cccc2[nH]cc(Cl)c12)Cc1ccccc1	106 to 108 °C
CCC(C)(N=NC(C)(CC)NC(=O)NC1CCCCC1)NC(=O)NC1CCCCC1 (stereo not given)	110 to 113 °C
COc1ncccc1-c1[nH]c2ccccc2c1C1CCNCC1	110 to 115 °C
CC(O)c1cc([N+](=O)[O-])ccc1F (stereo not given)	< 50 °C
COC(=O)Nc1nc2cc(S(=O)CC3CCCCC3)ccc2[nH]1 (stereo not given)	272 to 274 °C
COc1ccc2c(c1)c1c(n2C(=O)c2ccc(Cl)cc2)CCCC1C(=O)O (stereo not given)	181 to 185 °C
CC(C)(C)C(=O)OCN1C(=O)NC2(C1=O)C(=O)N(Cc1ccc(Br)cc1F)c1ccccc12 (stereo not given)	220 to 222 °C
OCCc1nccn1CCCCc1ccc(OCc2coc(/C=C/c3ccc(Br)cc3)n2)cc1	149 to 150 °C
O=C(Nc1ccc(C(=O)N2CCc3cn[nH]c3-c3sccc32)cc1)c1ccc(F)cc1Cl	258 to 266 °C
CC(C)C(OCc1ccccc1)[C@H]1[C@H]([N+](=O)[O-])[C@H](c2cccnc2)N[C@@H]1C(=O)NCCC(=O)O (stereo not given in full)	98 to 100 °C
C=CC(=O)OC(C#N)Cc1cccc(Cl)c1 (stereo not given)	100 to 101 °C
COc1nccc(-c2c(-c3ccc(F)cc3)ncn2C2CCC(=O)CC2)n1	212 to 214 °C
N#Cc1c[nH]c(Cl)c1-c1cccc(F)c1	158 to 161 °C
CC1(C)CCC(C)(C)c2cc(C(=O)COc3ccc(C=O)c(O)c3)ccc21	111 to 112 °C
CC(C(N)=O)c1ccc2nc(-c3ccccc3)oc2c1 (stereo not given)	193 °C
CC(=O)n1cc(C2C(=O)CC(C)(C)CC2=O)c2ccccc21	225 to 227 °C
Cc1c(CC(C)(C)C(=O)O)n(Cc2ccc(Cl)cc2)c2ccc(OCc3ccc4ccc(Cl)cc4n3)cc12	105 to 107 °C
N#Cc1cccc(-c2nc(N3CCC(O)C3)cc3cccnc23)c1 (stereo not given)	132 to 133 °C

SMILES	melting point
Cc1cccc(-c2nc(CC(=O)O)sc2-c2ccnc(N)c2)c1	132 to 133 °C
CCOC(=O)c1cccn1CCN1CCC(=C2c3ccn(C)c3CCn3ccnc32)CC1	162 °C
O=C(CN1CCOCC1)N[C@@H](Cc1cccc2ccccc12)C(=O)O	100 to 103 °C
N#Cc1ccc(NC(=O)c2ccc(C=O)cc2)cc1	236 °C
CN1CCC2(C)c3cc(OC(=O)OC(C)(C)C)cc(Br)c3N(C)C12 (stereo not given)	146 to 148 °C
CC(=O)N1c2ccc(-c3ccc(C=O)cc3)cc2C(NC=O)CC1C (stereo not given)	85.6 °C
O=C(O)Cc1cccc2c1N=C(c1ccccc1)CC2=O	238 to 240 °C
COC(=O)CNC(=O)c1ccc(C(=O)NS(=O)(=O)c2ccccc2)cn1	125 to 126 °C
O=C(NC/C=C\COc1cc(CN2CCCC2)ccn1)c1ccc[nH]1	124 to 127 °C
CCC(C)NCC(O)COc1ccc2c(=O)c(-c3ccccc3)c(-c3ccccc3)oc2c1 (stereo not given)	139 to 140 °C
Nc1nc(C(=NOCC(=O)NOCc2ccccc2)C(=O)O)cs1	170 to 172 °C
CCCCc1nc2c(N)nc3ccccc3c2n1CCCC(=NOC)c1ccccc1	198 to 200 °C
CNC(=O)CCc1cn(Cc2ccc(C(=O)O)cc2OC)c2cc(C(=O)NCC3CCCC3)ccc12	274 to 275 °C
CCn1c(=O)c2c(nc(/C=C/c3ccc(OC(=O)c4ccccc4)c(OC)c3)n2C)n(CC)c1=O	234 to 236 °C
CCOC(=O)C(=O)Nc1cc(Cl)ccc1[N+](=O)[O-]	103 to 104 °C
CCOC(=O)CCCOc1cccc(Oc2nc(OC)cc(OC)n2)c1C=O	96 °C
COC(=O)CCc1cc2cc(Cl)ccc2n1S(=O)(=O)c1cccc2c(C(=O)CN)cccc12	206 to 210 °C
Cn1c(C(F)(F)F)cc(=O)n(-c2cc(OCc3ccc(C(C)(C)C)cc3)c(Cl)cc2F)c1=O	156 to 158 °C
O=c1c(-c2ccccc2)c[nH]nc1-c1ccccc1	328 to 332 °C
CN1C(=O)C2(COc3cc4c(cc32)OCCO4)c2c(NC(=O)c3ccccc3)cccc21 (stereo not given)	192 to 194 °C
O=C(O)COc1ccc(CN2C(=O)C3(COc4cc5c(cc43)CCO5)c3ccccc32)cc1 (stereo not given)	265 to 266 °C
Cc1cc(=O)c(OCc2ccccc2)c(C(=O)O)o1	173 to 175 °C
CC(C)c1cccc(C(C)C)c1NS(=O)(=O)CC#N	195 to 197 °C
Cc1nccc2[nH]c(=O)c(C(N)=O)cc12	> 320 °C
CCCCOc1ccc(S(=O)(=O)N2CCN(C)CC2)cc1-c1nc2cc3nc[nH]c3cc2c(=O)[nH]1	124 to 126 °C
